Data published in ChEMBL document CHEMBL4837249, “Discovery of Potent Antiallergic Agents Based on an o-Aminopyridinyl Alkynyl Scaffold” (J Med Chem, 2021).

Columns and labels:
[1] = tested on: RBL-2H3; assay: Antiallergic activity against anti-DNP-IgE sensitized rat RBL-2H3 cells assessed as […] of degranulation by measuring beta-hexosaminidase release using P-nitrophenyl-N-acetyl-D-glucosamide as substrate at 0.2 uM measured after 1 hr by microplate reader relative to control; type: functional
[2] = tested on: RBL-2H3; assay: Antiallergic activity against anti-DNP-IgE sensitized rat RBL-2H3 cells assessed as […] of degranulation by measuring beta-hexosaminidase release using P-nitrophenyl-N-acetyl-D-glucosamide as substrate at 1 uM measured after 1 hr by microplate reader relative to control; type: functional
[3] = tested on: RBL-2H3; assay: Antiallergic activity against anti-DNP-IgE sensitized rat RBL-2H3 cells assessed as […] of degranulation by measuring beta-hexosaminidase release using P-nitrophenyl-N-acetyl-D-glucosamide as substrate at 0.04 uM measured after 1 hr by microplate reader relative to control; type: functional
[4] = tested on: RBL-2H3; assay: Antiallergic activity against anti-DNP-IgE sensitized rat RBL-2H3 cells assessed as […] of degranulation by measuring beta-hexosaminidase release using P-nitrophenyl-N-acetyl-D-glucosamide as substrate measured after 1 hr by microplate reader; type: functional, cell-based; conditions: RBL-2H3, 1 h
[5] = target: Macrophage colony-stimulating factor 1 receptor (Homo sapiens, UniProt P07333); assay: Inhibition of human recombinant CSF1R using ATP/Ulight-TK peptide incubated for 15 mins
[6] = Therapeutic index, ratio of CC50 for rat RBL2H3 cells to IC50 for Antiallergic activity against anti-DNP-IgE sensitized rat RBL-2H3 cells; type: toxicity; conditions: read-out: TI

Macrophage colony-stimulating factor 1 receptor, sequence (P07333 whole entry): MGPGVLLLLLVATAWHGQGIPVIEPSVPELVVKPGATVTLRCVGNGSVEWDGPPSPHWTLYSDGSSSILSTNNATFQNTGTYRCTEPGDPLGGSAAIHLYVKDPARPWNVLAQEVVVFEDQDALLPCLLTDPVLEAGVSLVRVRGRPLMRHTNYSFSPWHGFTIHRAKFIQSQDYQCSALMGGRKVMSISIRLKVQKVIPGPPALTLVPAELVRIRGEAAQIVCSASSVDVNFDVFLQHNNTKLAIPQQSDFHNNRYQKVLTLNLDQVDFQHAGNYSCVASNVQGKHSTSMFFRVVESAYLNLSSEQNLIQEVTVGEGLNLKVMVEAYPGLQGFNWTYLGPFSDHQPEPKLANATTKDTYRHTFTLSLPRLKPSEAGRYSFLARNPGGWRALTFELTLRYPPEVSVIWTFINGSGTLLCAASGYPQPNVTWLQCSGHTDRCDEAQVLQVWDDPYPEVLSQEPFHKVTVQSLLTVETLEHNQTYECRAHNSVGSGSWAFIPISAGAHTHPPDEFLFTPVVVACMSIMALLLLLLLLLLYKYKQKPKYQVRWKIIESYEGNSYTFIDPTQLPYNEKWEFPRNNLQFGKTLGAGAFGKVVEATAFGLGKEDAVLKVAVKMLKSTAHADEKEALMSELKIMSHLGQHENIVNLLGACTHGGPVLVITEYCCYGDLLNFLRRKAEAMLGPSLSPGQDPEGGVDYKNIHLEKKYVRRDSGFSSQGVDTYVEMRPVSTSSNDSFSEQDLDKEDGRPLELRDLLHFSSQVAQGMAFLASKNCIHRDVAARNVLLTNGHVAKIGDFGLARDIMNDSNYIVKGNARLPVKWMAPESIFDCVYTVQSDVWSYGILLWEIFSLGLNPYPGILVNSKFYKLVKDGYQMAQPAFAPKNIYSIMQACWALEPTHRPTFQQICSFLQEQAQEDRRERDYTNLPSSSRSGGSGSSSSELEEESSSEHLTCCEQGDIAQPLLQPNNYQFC

## COc1cc(NC(=O)c2ccc(C(C)C)c(C#Cc3cc(-c4cnn(C)c4)cnc3N)c2)cc(OC)c1
[1]
  inhibition at 0.2 µM: -7.82%
[2]
  inhibition at 1 µM: -1.01%
[3]
  inhibition at 0.04 µM: -8.56%

## COc1cc(NC(=O)c2ccc(OC)c(C#Cc3cc(-c4cnn(C)c4)cnc3N)c2)cc(OC)c1
[1]
  inhibition at 0.2 µM: 18%
[2]
  inhibition at 1 µM: 34%
[3]
  inhibition at 0.04 µM: 11%

## Cc1ccc(C(=O)Nc2ccc(Cl)c(C(F)(F)F)c2)cc1C#Cc1cc(-c2cnn(C)c2)cnc1N
[4]
  IC50: 0.013 µM
[5]
  IC50: 0.03 µM
[1]
  inhibition at 0.2 µM: 145%
[2]
  inhibition at 1 µM: 170%
[6]
  selectivity ratio: 13.9
[3]
  inhibition at 0.04 µM: 76.1%

## COc1cc(NC(=O)c2ccc(C)c(C#Cc3cc(C(N)=O)cnc3N)c2)cc(OC)c1
[1]
  inhibition at 0.2 µM: 13.7%
[2]
  inhibition at 1 µM: 74.2%
[3]
  inhibition at 0.04 µM: 10.8%

## Cc1ccc(C(=O)Nc2ccc(Cl)cc2)cc1C#Cc1cc(-c2cnn(C)c2)cnc1N
[4]
  IC50: 0.0239 µM
[1]
  inhibition at 0.2 µM: 68.6%
[2]
  inhibition at 1 µM: 89.5%
[6]
  selectivity ratio: 11.3
[3]
  inhibition at 0.04 µM: 52%

## Cc1ccc(C(=O)Nc2ccccc2)cc1C#Cc1cc(-c2cnn(C)c2)cnc1N
[1]
  inhibition at 0.2 µM: 40.9%
[2]
  inhibition at 1 µM: 65.3%
[3]
  inhibition at 0.04 µM: 28.6%

## COc1cc(NC(=O)c2ccc(C)c(C#Cc3cc(-c4cnn(C)c4)cnc3N)c2)cc(OC)c1OC
[4]
  IC50: 0.00743 µM
[5]
  IC50: 0.008 µM
[1]
  inhibition at 0.2 µM: 103%
[2]
  inhibition at 1 µM: 131%
[6]
  selectivity ratio: 2.2
[3]
  inhibition at 0.04 µM: 82.6%

## Cc1ccc(C(=O)Nc2ccc(Cl)c(Cl)c2)cc1C#Cc1cc(-c2cnn(C)c2)cnc1N
[1]
  inhibition at 0.2 µM: 40.6%
[2]
  inhibition at 1 µM: 65%
[3]
  inhibition at 0.04 µM: 39.8%

## COc1ccc(NC(=O)c2ccc(C)c(C#Cc3cc(-c4cnn(C)c4)cnc3N)c2)cc1
[4]
  IC50: 0.0106 µM
[1]
  inhibition at 0.2 µM: 66.9%
[2]
  inhibition at 1 µM: 101%
[3]
  inhibition at 0.04 µM: 41.5%

## COc1cc(NC(=O)c2ccc(C)c(C#Cc3cc(Cl)cnc3N)c2)cc(OC)c1
[1]
  inhibition at 0.2 µM: 37%
[2]
  inhibition at 1 µM: 50.9%
[3]
  inhibition at 0.04 µM: -1.58%

## COc1cc(NC(=O)c2cccc(C#Cc3cc(-c4cnn(C)c4)cnc3N)c2F)cc(OC)c1
[1]
  inhibition at 0.2 µM: 24.8%
[2]
  inhibition at 1 µM: 33%
[3]
  inhibition at 0.04 µM: 34%

## COc1cc(NC(=O)c2ccc(Br)c(C#Cc3cc(-c4cnn(C)c4)cnc3N)c2)cc(OC)c1
[1]
  inhibition at 0.2 µM: 36.6%
[2]
  inhibition at 1 µM: 79.2%
[3]
  inhibition at 0.04 µM: 22.6%

## COc1cc(NC(=O)c2ccc(C(F)(F)F)c(C#Cc3cc(-c4cnn(C)c4)cnc3N)c2)cc(OC)c1
[1]
  inhibition at 0.2 µM: -2.84%
[2]
  inhibition at 1 µM: 15.7%
[3]
  inhibition at 0.04 µM: -3.24%

## Cc1ccc(C(=O)Nc2ccccc2Cl)cc1C#Cc1cc(-c2cnn(C)c2)cnc1N
[1]
  inhibition at 0.2 µM: -5.24%
[2]
  inhibition at 1 µM: 25%
[3]
  inhibition at 0.04 µM: -4.58%

## COc1ccccc1NC(=O)c1ccc(C)c(C#Cc2cc(-c3cnn(C)c3)cnc2N)c1
[2]
  inhibition at 1 µM: 73.5%
[3]
  inhibition at 0.04 µM: 10.2%

## COc1cc(NC(=O)c2ccc(C)c(C#Cc3cc(-c4cnn(C)c4)cnc3N)c2)cc(OC)c1
[4]
  IC50: 0.0258 µM
[1]
  inhibition at 0.2 µM: 61.7%
[2]
  inhibition at 1 µM: 108%
[6]
  selectivity ratio: 15.4
[3]
  inhibition at 0.04 µM: 20.1%

## COc1cc(NC(=O)c2cccc(C#Cc3cc(-c4cnn(C)c4)cnc3N)c2C)cc(OC)c1
[1]
  inhibition at 0.2 µM: 8.75%
[2]
  inhibition at 1 µM: 18.3%
[3]
  inhibition at 0.04 µM: 3.11%

## COc1cc(NC(=O)c2ccc(Cl)c(C#Cc3cc(-c4cnn(C)c4)cnc3N)c2)cc(OC)c1
[1]
  inhibition at 0.2 µM: 9.97%
[2]
  inhibition at 1 µM: 52.5%
[3]
  inhibition at 0.04 µM: 0%

## Cc1ccc(C(=O)Nc2cccc(Cl)c2)cc1C#Cc1cc(-c2cnn(C)c2)cnc1N
[4]
  IC50: 0.00654 µM
[1]
  inhibition at 0.2 µM: 82.9%
[2]
  inhibition at 1 µM: 118%
[6]
  selectivity ratio: 3.8
[3]
  inhibition at 0.04 µM: 49%

## COc1cc(NC(=O)c2ccc(F)c(C#Cc3cc(-c4cnn(C)c4)cnc3N)c2)cc(OC)c1
[1]
  inhibition at 0.2 µM: 0.83%
[2]
  inhibition at 1 µM: 30.9%
[3]
  inhibition at 0.04 µM: 2.34%

## Cc1ccc(C(=O)Nc2ccc(C(F)(F)F)cc2)cc1C#Cc1cc(-c2cnn(C)c2)cnc1N
[4]
  IC50: 0.00608 µM
[1]
  inhibition at 0.2 µM: 60.8%
[2]
  inhibition at 1 µM: 78.4%
[6]
  selectivity ratio: 2.3
[3]
  inhibition at 0.04 µM: 51.1%

## CCNc1ncc(-c2cnn(C)c2)cc1C#Cc1cc(C(=O)Nc2cc(OC)cc(OC)c2)ccc1C
[1]
  inhibition at 0.2 µM: 45.3%
[2]
  inhibition at 1 µM: 95.4%
[3]
  inhibition at 0.04 µM: 16.8%

## Cc1ccc(C(=O)NC2CCCCC2)cc1C#Cc1cc(-c2cnn(C)c2)cnc1N
[2]
  inhibition at 1 µM: 63.7%
[3]
  inhibition at 0.04 µM: 0.18%

## Cc1ccc(C(=O)Nc2cccc(OC(F)(F)F)c2)cc1C#Cc1cc(-c2cnn(C)c2)cnc1N
[4]
  IC50: 0.00715 µM
[5]
  IC50: 0.024 µM
[1]
  inhibition at 0.2 µM: 138%
[2]
  inhibition at 1 µM: 150%
[6]
  selectivity ratio: 12.9
[3]
  inhibition at 0.04 µM: 81.1%

## Cc1ccc(C(=O)Nc2ccc3c(c2)OCCO3)cc1C#Cc1cc(-c2cnn(C)c2)cnc1N
[4]
  IC50: 0.0673 µM
[1]
  inhibition at 0.2 µM: 102%
[2]
  inhibition at 1 µM: 132%
[3]
  inhibition at 0.04 µM: 66.8%

## Cc1ccc(C(=O)Nc2cccc(C(F)(F)F)c2)cc1C#Cc1cc(-c2cnn(C)c2)cnc1N
[4]
  IC50: 0.00275 µM
[1]
  inhibition at 0.2 µM: 109%
[2]
  inhibition at 1 µM: 113%
[6]
  selectivity ratio: 2.5
[3]
  inhibition at 0.04 µM: 88.9%

## COc1cccc(NC(=O)c2ccc(C)c(C#Cc3cc(-c4cnn(C)c4)cnc3N)c2)c1
[4]
  IC50: 0.0219 µM
[1]
  inhibition at 0.2 µM: 80.5%
[2]
  inhibition at 1 µM: 125%

## COc1cc(NC(=O)c2ccc(C)c(C#Cc3cccnc3N)c2)cc(OC)c1
[1]
  inhibition at 0.2 µM: 3.01%
[2]
  inhibition at 1 µM: 55.9%
[3]
  inhibition at 0.04 µM: 4.26%

## COc1cc(NC(=O)c2cccc(C#Cc3cc(-c4cnn(C)c4)cnc3N)c2OC)cc(OC)c1
[1]
  inhibition at 0.2 µM: 6.7%
[2]
  inhibition at 1 µM: 22.8%
[3]
  inhibition at 0.04 µM: 0%

## FC(F)(F)c1ccc(CNc2ccc(Cc3c[nH]c4ncc(Cl)cc34)cn2)cn1 [PEXIDARTINIB]
[4]
  IC50: > 1 µM

## Cc1ccc(C(=O)Nc2ccccn2)cc1C#Cc1cc(-c2cnn(C)c2)cnc1N
[1]
  inhibition at 0.2 µM: 21.1%
[2]
  inhibition at 1 µM: 60.6%
[3]
  inhibition at 0.04 µM: 2.86%

## COc1ccc(NC(=O)c2ccc(C)c(C#Cc3cc(-c4cnn(C)c4)cnc3N)c2)cc1OC
[1]
  inhibition at 0.2 µM: 49.7%
[2]
  inhibition at 1 µM: 82.2%
[3]
  inhibition at 0.04 µM: 23.7%

## COc1cc(NC(=O)c2cccc(C#Cc3cc(-c4cnn(C)c4)cnc3N)c2)cc(OC)c1
[1]
  inhibition at 0.2 µM: 272%
[2]
  inhibition at 1 µM: 41%
[3]
  inhibition at 0.04 µM: 1.08%

## Cc1ccc(C(=O)Nc2ccc(C(F)(F)F)c(C(F)(F)F)c2)cc1C#Cc1cc(-c2cnn(C)c2)cnc1N
[4]
  IC50: 0.0588 µM
[2]
  inhibition at 1 µM: 144%
[3]
  inhibition at 0.04 µM: 40.5%

## Cc1ccc(C(=O)Nc2ccc(CN3CCN(C)CC3)c(C(F)(F)F)c2)cc1C#Cc1cnc2cccnn12 [PONATINIB]
[4]
  IC50: 0.148 µM

## CNC(=O)c1cnc(N)c(C#Cc2cc(C(=O)Nc3cc(OC)cc(OC)c3)ccc2C)c1
[1]
  inhibition at 0.2 µM: 26.8%
[2]
  inhibition at 1 µM: 66.2%
[3]
  inhibition at 0.04 µM: 14.7%
